Test results: ChEMBL document CHEMBL1201862, “PubChem BioAssay data set” (2004)
Activity calls are given as the source filed them.

Legend:
[1] = control 3'UTR Renilla luciferase suppression, dose response, counter-screen for Shn3 inhibitor project, cell-based, Clone20-Shn3RL, cherry-picked (AID 624133); type: functional
[2] = Shn3 3'UTR reporter inhibitors, dose response, cell-based, Clone20 osteoblasts, firefly luciferase, cherry-picked (AID 624132); type: functional;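 note: firefly luciferase luminescence from reporter carrying the Shn3 3'UTR in osteoblasts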
[3] = biological target: T1, COUP transcription factor 2 (Homo sapiens, UniProt P24468); assay: Luminescence-based cell-based high throughput dose response assay to identify inhibitors of COUP-TFII (NR2F2).; type: functional;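 note: HEK293 cells transiently cotransfected with COUP-TFII expression vector and reporter; luciferase reporter luminescence driven by COUP-TFII from the pX2-168 reporter plasmid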
T1 sequence (P24468 whole entry): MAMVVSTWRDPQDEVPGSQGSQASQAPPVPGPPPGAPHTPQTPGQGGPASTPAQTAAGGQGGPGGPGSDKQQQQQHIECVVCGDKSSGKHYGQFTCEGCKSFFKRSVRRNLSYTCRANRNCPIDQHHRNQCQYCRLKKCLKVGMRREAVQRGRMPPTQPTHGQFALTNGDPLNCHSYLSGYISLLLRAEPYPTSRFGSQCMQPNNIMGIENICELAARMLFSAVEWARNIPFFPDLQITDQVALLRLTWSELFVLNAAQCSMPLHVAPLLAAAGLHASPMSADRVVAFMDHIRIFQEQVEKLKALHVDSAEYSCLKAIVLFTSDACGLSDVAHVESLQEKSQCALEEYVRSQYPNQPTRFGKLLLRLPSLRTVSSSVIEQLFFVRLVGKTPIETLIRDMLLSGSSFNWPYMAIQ

[4] = biological target: T2, Heat shock factor protein 1 (Mus musculus, UniProt P38532); assay: inhibition of MG132-induced HSE-luciferase signal, confirmation, cell-based, NIH3T3, luminescence, dose retest (AID 2382); type: functional;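 note: NIH3T3 fibroblasts with HSF1-driven luciferase reporter stressed by proteasome inhibitor MG132; luminescence from HSF1-driven luciferase expression after 8 hours of MG132 stress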
T2 sequence (P38532 whole entry): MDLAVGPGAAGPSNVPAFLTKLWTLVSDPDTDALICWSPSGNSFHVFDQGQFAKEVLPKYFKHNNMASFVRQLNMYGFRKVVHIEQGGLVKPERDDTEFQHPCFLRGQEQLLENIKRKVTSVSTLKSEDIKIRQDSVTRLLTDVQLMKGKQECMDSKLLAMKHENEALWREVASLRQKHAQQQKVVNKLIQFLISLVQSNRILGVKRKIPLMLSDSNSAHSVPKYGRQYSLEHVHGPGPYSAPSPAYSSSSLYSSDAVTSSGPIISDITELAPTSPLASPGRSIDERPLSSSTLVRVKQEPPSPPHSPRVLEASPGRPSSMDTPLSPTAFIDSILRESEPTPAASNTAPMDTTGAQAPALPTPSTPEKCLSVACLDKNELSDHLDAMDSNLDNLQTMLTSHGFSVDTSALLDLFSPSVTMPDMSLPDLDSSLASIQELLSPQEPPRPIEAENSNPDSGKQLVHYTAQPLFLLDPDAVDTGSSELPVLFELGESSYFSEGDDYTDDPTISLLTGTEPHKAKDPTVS

[5] = inhibitors of PGC1a acetylation in cells, dose response, cell-based, cherry-picked samples (AID 720514); type: functional;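 note: potency may reflect raised or lowered acetylation signal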
[6] = HepG2 cell cytotoxicity, dose response, cytotoxicity control for Shn3 inhibitor project, CellTiter-Glo, cherry-picked (AID 624134); type: functional, cell-based
[7] = biological target: Heat shock protein HSP 90-alpha (Homo sapiens, UniProt P07900); type: functional, organism-based
[8] = inhibitors of intracellular T. cruzi replication, confirmation, NIH3T3 host cells, beta-gal luminescence (AID 2044); type: functional, cell-based;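 note: intracellular parasites grown in NIH/3T3 mouse fibroblasts as host cells; luminescent beta-galactosidase reporter signal from transgenic T. cruzi replicating inside host cells; inhibitors lower the luminescence signal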
[9] = cells
[10] = system: Vero; assay: West Nile virus antiviral activity, cell-based, CPE readout (AID 1621); type: functional; conditions: Chlorocebus sabaeus
[11] = system: Vero; assay: host cell cytotoxicity of antiviral hits, dose response, cytotoxicity control for West Nile virus antiviral project, secondary assay (AID 1650); type: functional; conditions: Chlorocebus sabaeus
[12] = biological target: T3, Epstein-Barr nuclear antigen 1 (Epstein-Barr virus (strain B95-8) (HHV-4) (Human herpesvirus 4), UniProt P03211); assay: EBNA-1 inhibitors, dose response, biochemical, fluorescence polarization, 1536-well (AID 2381); set-up: species or system human gammaherpesvirus 4;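 note: fluorescence polarization of a Cy5 DNA probe bound by EBNA-1 protein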
T3 sequence (P03211 whole entry): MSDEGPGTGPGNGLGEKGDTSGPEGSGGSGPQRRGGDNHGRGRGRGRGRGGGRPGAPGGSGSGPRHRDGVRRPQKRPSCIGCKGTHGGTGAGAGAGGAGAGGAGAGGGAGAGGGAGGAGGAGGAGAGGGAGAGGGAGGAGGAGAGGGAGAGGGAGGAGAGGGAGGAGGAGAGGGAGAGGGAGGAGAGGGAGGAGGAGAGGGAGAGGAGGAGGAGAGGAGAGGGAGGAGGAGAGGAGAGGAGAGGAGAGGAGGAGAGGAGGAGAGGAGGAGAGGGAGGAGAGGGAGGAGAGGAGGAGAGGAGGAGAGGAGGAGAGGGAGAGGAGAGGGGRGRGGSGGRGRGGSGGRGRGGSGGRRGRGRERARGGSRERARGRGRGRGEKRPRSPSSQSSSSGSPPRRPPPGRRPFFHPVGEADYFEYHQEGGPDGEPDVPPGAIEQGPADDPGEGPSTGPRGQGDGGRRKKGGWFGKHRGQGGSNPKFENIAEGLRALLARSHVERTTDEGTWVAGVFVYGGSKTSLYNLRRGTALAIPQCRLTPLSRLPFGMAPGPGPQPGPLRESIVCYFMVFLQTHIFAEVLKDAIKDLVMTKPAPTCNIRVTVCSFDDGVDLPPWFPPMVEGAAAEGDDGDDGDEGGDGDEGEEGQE

[13] = biological target: T4, Lytic switch protein BZLF1 (Epstein-Barr virus (strain B95-8) (HHV-4) (Human herpesvirus 4), UniProt P03206); assay: EBV ZTA inhibitors, dose response, counter-screen for EBNA-1 inhibitor project, biochemical, fluorescence polarization, Epstein-Barr virus, 1536-well (AID 2377); set-up: species or system human gammaherpesvirus 4;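 note: fluorescence polarization of Cy5-labelled ZRE DNA probe bound by purified Zta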
T4 sequence (P03206 whole entry): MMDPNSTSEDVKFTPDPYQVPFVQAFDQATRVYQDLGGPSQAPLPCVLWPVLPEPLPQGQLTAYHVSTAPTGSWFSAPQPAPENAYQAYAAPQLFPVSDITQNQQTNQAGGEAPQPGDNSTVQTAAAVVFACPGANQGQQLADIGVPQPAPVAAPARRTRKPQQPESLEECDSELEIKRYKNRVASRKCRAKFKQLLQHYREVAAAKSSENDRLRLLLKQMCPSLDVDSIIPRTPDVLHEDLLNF

[14] = biological target: G-protein coupled receptor 55 (Homo sapiens, UniProt Q9Y2T6); assay: SAR Analysis of Selective Antagonists of GPR55 using an Image-Based Assay - Set 4. [Related pubchem assays (depositor defined):AID2013, AID2026]; type: functional;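 note: antagonism of response to 5 µM lysophosphatidylinositol agonist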
[15] = biological target: T5, Cannabinoid receptor 2 (Homo sapiens, UniProt P34972); assay: SAR analysis of antagonists of the Cannabinoid Receptor 2 using an Image-Based Assay - Set 3. [Related pubchem assays (depositor defined):AID2013, AID2026]; type: functional
[16] = biological target: T6, Cannabinoid receptor 1 (Homo sapiens, UniProt P21554); assay: SAR analysis of antagonists of the Cannabinoid Receptor 1 using an Image-Based Assay - Set 4. [Related pubchem assays (depositor defined):AID2013, AID2026]; type: functional
[17] = biological target: T7, G-protein coupled receptor 35 (Homo sapiens, UniProt Q9HC97); assay: SAR analysis of Agonists of the GPR35 Receptor using an Image-Based Assay - Set 4. [Related pubchem assays (depositor defined):AID2013, AID2026]; type: functional
[18] = biological target: T6, Cannabinoid receptor 1; assay: SAR analysis of agonists of the Cannabinoid Receptor 1 using an Image-Based Assay - Set 4. [Related pubchem assays (depositor defined):AID2013, AID2026]; type: functional
[19] = biological target: T7, G-protein coupled receptor 35; assay: SAR analysis of Antagonists of the GPR35 Receptor using an Image-Based Assay - Set 6. [Related pubchem assays (depositor defined):AID2013, AID2026]; type: functional
[20] = biological target: T5, Cannabinoid receptor 2; assay: SAR analysis of agonists of the Cannabinoid Receptor 2 using an Image-Based Assay - Set 3. [Related pubchem assays (depositor defined):AID2013, AID2026]; type: functional
[21] = biological target: T8, Acyl-homoserine lactone acylase PvdQ (Pseudomonas aeruginosa (strain LESB58), UniProt Q9I194); assay: P. aeruginosa PvdQ acylase inhibitors, dose response, biochemical, fluorescence, plate reader and imaging, cherry-picks (AID 493231)
T8 sequence (Q9I194 whole entry): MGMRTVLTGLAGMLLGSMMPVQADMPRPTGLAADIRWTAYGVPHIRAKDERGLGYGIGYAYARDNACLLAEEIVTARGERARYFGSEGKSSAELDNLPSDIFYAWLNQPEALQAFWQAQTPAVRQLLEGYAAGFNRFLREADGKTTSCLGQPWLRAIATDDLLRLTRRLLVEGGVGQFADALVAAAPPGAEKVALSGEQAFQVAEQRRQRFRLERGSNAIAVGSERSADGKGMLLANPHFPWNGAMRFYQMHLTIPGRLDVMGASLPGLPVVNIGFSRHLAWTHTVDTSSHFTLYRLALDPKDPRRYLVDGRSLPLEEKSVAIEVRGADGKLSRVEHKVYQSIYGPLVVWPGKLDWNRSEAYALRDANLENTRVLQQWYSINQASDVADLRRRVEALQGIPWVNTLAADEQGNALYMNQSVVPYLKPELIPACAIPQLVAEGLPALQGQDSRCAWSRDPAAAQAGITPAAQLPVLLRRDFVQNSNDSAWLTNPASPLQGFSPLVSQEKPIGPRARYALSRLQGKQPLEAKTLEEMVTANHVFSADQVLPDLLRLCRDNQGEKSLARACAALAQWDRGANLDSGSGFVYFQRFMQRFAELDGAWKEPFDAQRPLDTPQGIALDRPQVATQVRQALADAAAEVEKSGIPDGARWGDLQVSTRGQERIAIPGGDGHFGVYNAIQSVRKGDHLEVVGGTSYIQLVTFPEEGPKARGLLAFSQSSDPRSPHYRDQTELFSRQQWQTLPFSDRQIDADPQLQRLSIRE

[22] = M. tuberculosis H37Rv growth inhibitors, H37Rv strain (AID 1626); type: functional

T7 sequence (Q9HC97 whole entry): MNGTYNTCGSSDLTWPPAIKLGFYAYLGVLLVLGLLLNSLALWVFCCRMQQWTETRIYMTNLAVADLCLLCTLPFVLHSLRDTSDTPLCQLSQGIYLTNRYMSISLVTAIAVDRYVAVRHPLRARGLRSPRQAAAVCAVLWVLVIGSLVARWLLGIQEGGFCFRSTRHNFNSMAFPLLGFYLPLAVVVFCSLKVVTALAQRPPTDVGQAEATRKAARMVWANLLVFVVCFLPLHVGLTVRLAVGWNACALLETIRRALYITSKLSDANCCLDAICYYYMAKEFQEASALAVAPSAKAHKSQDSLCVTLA
T6 sequence (P21554 whole entry): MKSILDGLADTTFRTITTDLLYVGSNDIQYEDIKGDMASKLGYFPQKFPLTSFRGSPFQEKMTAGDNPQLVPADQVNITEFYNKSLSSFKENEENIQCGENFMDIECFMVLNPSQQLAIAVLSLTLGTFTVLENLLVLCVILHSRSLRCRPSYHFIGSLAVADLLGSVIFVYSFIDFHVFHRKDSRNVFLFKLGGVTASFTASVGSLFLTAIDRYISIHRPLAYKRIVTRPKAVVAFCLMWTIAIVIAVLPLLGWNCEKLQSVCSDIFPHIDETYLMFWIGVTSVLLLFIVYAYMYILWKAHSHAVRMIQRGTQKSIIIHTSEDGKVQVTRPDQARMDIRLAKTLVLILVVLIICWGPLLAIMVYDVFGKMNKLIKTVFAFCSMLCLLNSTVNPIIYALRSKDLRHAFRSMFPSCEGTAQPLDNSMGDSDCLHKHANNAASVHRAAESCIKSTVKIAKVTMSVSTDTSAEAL
T5 sequence (P34972 whole entry): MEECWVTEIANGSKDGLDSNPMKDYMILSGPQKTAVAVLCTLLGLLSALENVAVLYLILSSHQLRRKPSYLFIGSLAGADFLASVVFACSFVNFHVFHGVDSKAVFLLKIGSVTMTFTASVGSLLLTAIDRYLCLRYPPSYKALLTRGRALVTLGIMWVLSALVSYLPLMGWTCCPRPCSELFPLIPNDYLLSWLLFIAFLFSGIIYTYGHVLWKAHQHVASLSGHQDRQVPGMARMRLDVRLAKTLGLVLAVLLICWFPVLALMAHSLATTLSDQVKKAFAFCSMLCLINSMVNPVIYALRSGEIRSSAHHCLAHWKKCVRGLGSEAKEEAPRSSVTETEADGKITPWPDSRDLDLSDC
Chain of G-protein coupled receptor 55 (Q9Y2T6 whole entry): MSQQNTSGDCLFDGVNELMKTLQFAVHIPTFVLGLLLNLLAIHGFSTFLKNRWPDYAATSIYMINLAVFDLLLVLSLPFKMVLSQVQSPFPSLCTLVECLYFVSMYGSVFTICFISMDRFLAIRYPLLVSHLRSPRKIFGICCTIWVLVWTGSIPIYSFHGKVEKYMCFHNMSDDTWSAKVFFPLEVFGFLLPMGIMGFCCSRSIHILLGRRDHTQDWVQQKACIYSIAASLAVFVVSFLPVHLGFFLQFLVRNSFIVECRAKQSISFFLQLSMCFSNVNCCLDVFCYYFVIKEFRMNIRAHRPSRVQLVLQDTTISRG

C[C@H]1C[C@@H](C)C(=O)[C@@H]([C@H](O)CC2CC(=O)NC(=O)C2)C1
AC50 [1]: 2.18 µM (active)
AC50 [2]: 0.307 µM (active)
IC50 [3]: 1.03 µM (active)
EC50 [4]: 0.66 µM (active)
AC50 [5]: 4.92 µM (active)
AC50 [6]: > 70 µM (inactive)
AC50 [7]: < 0.195 µM (active)
EC50 [8]: < 0.1 µM (active)
EC50 [9]: < 0.004 µM (active)
IC50 [10]: 0.43 µM (active)
CC50 [11]: 0.96 µM (active)

Cc1ccc(Nc2nc(NCC3CCCO3)nc(N)c2[N+](=O)[O-])cc1C (configuration not stated)
IC50 [12]: 6.09 µM (active)
IC50 [13]: > 111 µM (not active)

CCN(CC)S(=O)(=O)c1ccc(NC(=O)c2cc(-c3ccccc3)nc3ccccc23)cc1
IC50 [14]: > 32 µM (inactive)
IC50 [15]: > 10.8 µM (inactive)
IC50 [16]: 0.352 µM (active)
EC50 [17]: > 32 µM (inactive)
EC50 [18]: > 32 µM (inactive)
IC50 [19]: > 32 µM (inactive)
EC50 [20]: > 32 µM (inactive)

O=C(NC1CCCCCCC1)c1cc(F)c(F)cc1Cl
AC50 [21]: 52.8 µM (active)

CCOC(=O)c1ccc(NC(=O)CCc2c(C)nc3ncnn3c2C)cc1
IC50 [22]: > 100 µM (active)
